The source of these data is patent publication US20100119599A1 (ARCHER PHARMACEUTICALS, INC., priority 2006, published 2010).

For one assay, the system named is Aβ1-40. Put plainly: Measurement of Aβ1-40 in culture medium of 7W WT APP751 CHO cells by ELISA. The format is cell-based, Chinese hamster. To be noted: Cricetulus griseus; Table 1; 5 μM test compound; CHO cells stably transfected with human APP751; culture medium, ELISA; control DMSO; 0 = no detectable amount.
The subject of a further assay is Aβ1-42. Kind of assay: Measurement of Aβ1-42 in culture medium of 7W WT APP751 CHO cells by ELISA. Type of assay: cell-based, Chinese hamster. To be noted: Cricetulus griseus; Table 1; 5 μM test compound; CHO cells stably transfected with human APP751; culture medium, ELISA; control DMSO; 0 = no detectable amount; read-out: Aβ1-42 (% of control).
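Also: 5 µM test compound but RI-coded compounds at 10 µM for 24 hours.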

With `CCOC(=O)C1=C(C)NC2=C(C(=O)CCC2)C1c1ccc(OC)cc1OC` (centres unmarked) [ST013213, ethyl 4-(2,4-dimethoxyphenyl)-2-methyl-5-oxo-1,4,6,7,8-pentahydroquinoline-3-carboxylate], the activity at 5 µM in the assay with Aβ1-40 was determined as 78.2%; in the assay with Aβ1-42, 69.3%.

For the compound `CC1=C(C(=O)OCc2ccccc2)C(c2ccc([N+](=O)[O-])cc2)C2=C(CC(C)(C)CC2=O)N1` (centres unmarked) [ST013214, phenylmethyl 2,7,7-trimethyl-4-(4-nitrophenyl)-5-oxo-1,4,6,7,8-pentahydroquinoline-3-carboxylate], the activity at 5 µM came to 0% in the assay with Aβ1-40 and 4.36% with Aβ1-42.

Turning to `CC1=C(C(=O)OCc2ccccc2)C(c2ccccc2)C2=C(CC(C)(C)CC2=O)N1` (centres unmarked) [ST013215, phenylmethyl 2,7,7-trimethyl-5-oxo-4-phenyl-1,4,6,7,8-pentahydroquinoline-3-carboxylate], the activity at 5 µM in the assay with Aβ1-40 amounted to 0%; in the assay on Aβ1-42 it was 88.6%.

As for `CCOC(=O)C1=C(C)NC2=C(C(=O)CCC2)C1c1ccccc1OCc1ccccc1` (centres unmarked) [ST013216, ethyl 2-methyl-5-oxo-4-[2-(phenylmethoxy)phenyl]-1,4,6,7,8-pentahydroquinoline-3-carboxylate], the activity at 5 µM in the assay on Aβ1-40 was found to be 0%; in the assay with Aβ1-42, 88.8%.

For the compound `CCc1ccc(C2C(C(=O)OC3CCCC3)=C(C)NC3=C2C(=O)CC(C)(C)C3)cc1` (centres unmarked) [ST013227, cyclopentyl 4-(4-ethylphenyl)-2,7,7-trimethyl-5-oxo-1,4,6,7,8-pentahydroquinoline-3-carboxylate], the activity at 5 µM with Aβ1-40 is 0%; with Aβ1-42 it was 92.7%.

Consider `CC1=C(C(=O)OCc2ccccc2)C(c2cccc(Cl)c2Cl)C2=C(CC(C)(C)CC2=O)N1` (centres unmarked) [ST013230, phenylmethyl 4-(2,3-dichlorophenyl)-2,7,7-trimethyl-5-oxo-1,4,6,7,8-pentahydroquinoline-3-carboxylate], for which the activity at 5 µM in the assay on Aβ1-40 is 0%; in the assay on Aβ1-42 it was 69.5%.

As to `CC1=C(C(=O)OC2CCCCC2)C(c2ccccc2Cl)C2=C(CC(C)(C)CC2=O)N1` (centres unmarked) [ST013235, cyclohexyl 4-(2-chlorophenyl)-2,7,7-trimethyl-5-oxo-1,4,6,7,8-pentahydroquinoline-3-carboxylate], the activity at 5 µM in the assay on Aβ1-40 worked out at 0%; in the assay with Aβ1-42, 43%.

Consider `CCCCOC(=O)C1=C(C)NC2=C(C(=O)CC(C)(C)C2)C1c1cccc(Cl)c1Cl` (centres unmarked) [ST013239, butyl 4-(2,3-dichlorophenyl)-2,7,7-trimethyl-5-oxo-1,4,6,7,8-pentahydroquinoline-3-carboxylate], for which the activity at 5 µM turned out to be 0% in the assay with Aβ1-40 and 59.5% in the assay with Aβ1-42.

Turning to `CCOc1cc(C2C(C(=O)OCc3ccccc3)=C(C)NC3=C2C(=O)CCC3)ccc1O` (centres unmarked) [ST013242, phenylmethyl 4-(3-ethoxy-4-hydroxyphenyl)-2-methyl-5-oxo-1,4,6,7,8-pentahydroquinoline-3-carboxylate], the activity at 5 µM with Aβ1-40 stood at 81.2%; in the assay on Aβ1-42, 64.4%.

In the case of `CCCOC(=O)C1=C(C)NC2=C(C(=O)CCC2)C1c1ccc(C)cc1` (centres unmarked) [ST013247, propyl 2-methyl-4-(4-methylphenyl)-5-oxo-1,4,6,7,8-pentahydroquinoline-3-carboxylate], the activity at 5 µM in the assay on Aβ1-40 was 35.5%; in the assay with Aβ1-42, 55%.

Consider `COc1cc(C2C(C(=O)OCc3ccccc3)=C(C)NC3=C2C(=O)CCC3)cc(Br)c1O` (centres unmarked) [ST013249, phenylmethyl 4-(3-bromo-4-hydroxy-5-methoxyphenyl)-2-methyl-5-oxo-1,4,6,7,8-pentahydroquinoline-3-carboxylate], for which the activity at 5 µM with Aβ1-40 was found to be 0%; in the assay on Aβ1-42, 68%.

In the case of `COCCOC(=O)C1=C(C)NC2=C(C(=O)CCC2)C1c1ccc(N(C)C)cc1` (centres unmarked) [ST013251, 2-methoxyethyl 4-[4-(dimethylamino)phenyl]-2-methyl-5-oxo-1,4,6,7,8-pentahydroquinoline-3-carboxylate], the activity at 5 µM in the assay with Aβ1-40 was determined as 89.4%; in the assay on Aβ1-42, 58.6%.

Consider `COCCOC(=O)C1=C(C)NC2=C(C(=O)CCC2)C1c1ccccc1` (centres unmarked) [ST013253, 2-methoxyethyl 2-methyl-5-oxo-4-phenyl-1,4,6,7,8-pentahydroquinoline-3-carboxylate], for which the figures for the activity at 5 µM with Aβ1-40 and with Aβ1-42 were 50.2% and 85.8%, respectively.

Turning to `COCCOC(=O)C1=C(C)NC2=C(C(=O)CCC2)C1c1ccc(O)cc1` (centres unmarked) [ST013254, 2-methoxyethyl 4-(4-hydroxyphenyl)-2-methyl-5-oxo-1,4,6,7,8-pentahydroquinoline-3-carboxylate], the results for the activity at 5 µM with Aβ1-40 and in the assay on Aβ1-42 were 49.6% and 76.9%, respectively.

With `CCN(CC)c1ccc(C2C(C(=O)OCCOC)=C(C)NC3=C2C(=O)CCC3)cc1` (centres unmarked) [ST013256, 2-methoxyethyl 4-[4-(diethylamino)phenyl]-2-methyl-5-oxo-1,4,6,7,8-pentahydroquinoline-3-carboxylate], the values for the activity at 5 µM in the assay on Aβ1-40 and with Aβ1-42 were 60.2% and 92.8%, respectively.

For `CC1=C(C(=O)OC2CCCCC2)C(c2cccc3ccccc23)C2=C(CCCC2=O)N1` (centres unmarked) [ST013258, cyclohexyl 2-methyl-4-naphthyl-5-oxo-1,4,6,7,8-pentahydroquinoline-3-carboxylate], the activity at 5 µM in the assay on Aβ1-40 was 0%; in the assay with Aβ1-42, 47%.

In the case of `CC1=C(C(=O)OC2CCCCC2)C(c2ccc(Cl)c(Cl)c2)C2=C(CCCC2=O)N1` (centres unmarked) [ST013269, cyclohexyl 4-(3,4-dichlorophenyl)-2-methyl-5-oxo-1,4,6,7,8-pentahydroquinoline-3-carboxylate], the activity at 5 µM was found to be 12.3% with Aβ1-40 and 1.35% with Aβ1-42.

`COc1ccc(OC)c(C2C(C(=O)OC3CCCCC3)=C(C)NC3=C2C(=O)CCC3)c1` (centres unmarked) [ST013270, cyclohexyl 4-(2,5-dimethoxyphenyl)-2-methyl-5-oxo-1,4,6,7,8-pentahydroquinoline-3-carboxylate]: the activity at 5 µM with Aβ1-40 was 19.7%; in the assay on Aβ1-42, 35%.

For the compound `CC1=C(C(=O)OC2CCCCC2)C(c2ccccc2OCc2ccccc2)C2=C(CCCC2=O)N1` (centres unmarked) [ST013271, cyclohexyl 2-methyl-5-oxo-4-[2-(phenylmethoxy)phenyl]-1,4,6,7,8-pentahydroquinoline-3-carboxylate], the figures for the activity at 5 µM with Aβ1-40 and with Aβ1-42 were 6.92% and 39.9%, respectively.

On to `CCc1ccc(C2C(C(=O)OC3CCCCC3)=C(C)NC3=C2C(=O)CCC3)cc1` (centres unmarked) [ST013320, cyclohexyl 4-(4-ethylphenyl)-2-methyl-5-oxo-1,4,6,7,8-pentahydroquinoline-3-carboxylate], for which the activity at 5 µM with Aβ1-40 came out at 60.2%; in the assay with Aβ1-42, 71.8%.

As to `CCCOC(=O)C1=C(C)NC2=C(C(=O)CCC2)C1c1ccccc1OC(C)C` (centres unmarked) [ST013322, propyl 2-methyl-4-[2-(methylethoxy)phenyl]-5-oxo-1,4,6,7,8-pentahydroquinoline-3-carboxylate], the figures for the activity at 5 µM in the assay with Aβ1-40 and in the assay with Aβ1-42 were 57.6% and 99.7%, respectively.

For the compound `CCOc1ccc(C2C(C(=O)OC(C)C)=C(C)NC3=C2C(=O)CCC3)cc1OC` (centres unmarked) [ST013323, methylethyl 4-(4-ethoxy-3-methoxyphenyl)-2-methyl-5-oxo-1,4,6,7,8-pentahydroquinoline-3-carboxylate], the figures for the activity at 5 µM in the assay with Aβ1-40 and in the assay with Aβ1-42 were 56.7% and 80.1%, respectively.
